According to patent publication US10597383B2, “Bicyclic proline compounds” (Genentech, Inc., priority 2016, dated 2020):

The compounds below were run against human TRPA1 (Homo sapiens (Human), UniProt O75762) (assay: hTRPA1 CHO Ca2+ AUC EVO (IC50); FLIPR Tetra block of cinnamaldehyde induced calcium influx). Conditions: Table 1; CHO cells expressing TRPA1; 75 uM cinnamaldehyde (~EC80) as agonist.
Assay type: cell-based
Protocol: IC50 ([…]) of compounds on the human and rat TRPA1 channels were determined using a FLIPR Tetra instrument. CHO cells expressing TRPA1 were plated into 384-well plates, incubated overnight at 37° C., and loaded with BD calcium indicator dye for 1 hr at 37° C. followed by 15 minutes. at room temperature. The assay buffer was Hank's Balanced Salt Solution (HBSS) containing 20 mM HEPES (pH readjusted to 7.4) along with 0.02% BSA.
Following dye load and plate cool down, compounds were added to the cells using FLIPR Tetra. Plates were then incubated with compounds for 20 minutes at room temperature prior to adding agonist. Following this incubation, ˜EC80 concentration of cinnamaldehyde (75 uM for human TRPA1 and 45 uM for rat TRPA1) was added to active the channels and block of cinnamaldehyde induced calcium influx was measured.
IC50 values were fit with a standard Hill function, keeping the Hill coefficient (n) fixed to 1.5. Fixing the Hill coefficient will generally reduce variability of the IC50 determination. The IC50 values were individually examined to make sure the MIN and MAX points were set correctly prior to validation of the results.

Sequence of human TRPA1 (O75762 whole entry): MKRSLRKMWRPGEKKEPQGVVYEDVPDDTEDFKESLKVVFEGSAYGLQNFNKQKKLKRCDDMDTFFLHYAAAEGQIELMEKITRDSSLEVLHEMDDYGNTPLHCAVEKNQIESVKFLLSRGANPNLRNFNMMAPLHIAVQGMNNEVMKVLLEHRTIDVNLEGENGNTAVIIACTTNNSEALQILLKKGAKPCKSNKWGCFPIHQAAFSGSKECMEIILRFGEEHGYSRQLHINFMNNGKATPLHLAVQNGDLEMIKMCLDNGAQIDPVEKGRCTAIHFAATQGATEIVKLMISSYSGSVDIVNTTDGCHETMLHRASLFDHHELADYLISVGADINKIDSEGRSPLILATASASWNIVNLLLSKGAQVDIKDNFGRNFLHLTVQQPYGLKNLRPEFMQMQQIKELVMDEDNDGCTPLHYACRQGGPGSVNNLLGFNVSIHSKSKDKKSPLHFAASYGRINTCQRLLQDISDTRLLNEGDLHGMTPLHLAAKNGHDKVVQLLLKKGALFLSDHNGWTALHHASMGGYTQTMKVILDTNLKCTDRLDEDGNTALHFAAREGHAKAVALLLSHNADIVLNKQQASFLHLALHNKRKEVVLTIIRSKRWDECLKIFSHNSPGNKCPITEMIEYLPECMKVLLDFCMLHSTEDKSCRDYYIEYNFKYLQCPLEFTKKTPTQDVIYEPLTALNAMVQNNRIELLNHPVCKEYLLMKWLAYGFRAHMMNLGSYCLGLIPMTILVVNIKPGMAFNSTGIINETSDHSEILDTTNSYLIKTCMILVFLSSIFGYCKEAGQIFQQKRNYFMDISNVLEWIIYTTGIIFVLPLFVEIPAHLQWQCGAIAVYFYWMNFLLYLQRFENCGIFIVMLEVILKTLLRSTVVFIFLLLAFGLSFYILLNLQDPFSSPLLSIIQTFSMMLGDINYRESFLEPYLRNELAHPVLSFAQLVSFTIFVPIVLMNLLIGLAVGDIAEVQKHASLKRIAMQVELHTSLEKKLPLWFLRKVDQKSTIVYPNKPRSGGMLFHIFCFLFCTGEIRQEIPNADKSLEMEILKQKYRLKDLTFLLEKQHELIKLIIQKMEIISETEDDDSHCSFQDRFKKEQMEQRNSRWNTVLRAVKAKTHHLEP

| Compound | IC50 |
| --- | --- |
| O=C(NCc1cc(-c2cnc(C(F)(F)F)nc2)c(F)cn1)[C@@H]1C2CC(C2)N1S(=O)(=O)c1cc2cc(F)ccc2o1 | 1.08 nM |
| O=C(NCc1cc(-c2cnc(C(F)(F)F)nc2)ccc1F)[C@@H]1C2CC(C2)N1S(=O)(=O)c1ccc(F)cc1 [(2S)-3-(4-fluorophenyl)sulfonyl-N-[[2-fluoro-5-[2-(trifluoromethyl)pyrimidin-5-yl]phenyl]methyl]-3-azabicyclo[2.1.1]hexane-2-carboxamide] | 9.89 nM |
| O=C(NCc1cc(F)cc(-c2cnc(C(F)(F)F)nc2)c1)[C@@H]1C2CC(C2)N1S(=O)(=O)c1ccc(F)cc1 [(2S)-3-(4-fluorophenyl)sulfonyl-N-[[3-fluoro-5-[2-(trifluoromethyl)pyrimidin-5-yl]phenyl]methyl]-3-azabicyclo[2.1.1]hexane-2-carboxamide] | 8.97 nM |
| O=C(NCc1cc(-c2cnc(C(F)(F)F)nc2)ncc1OC(F)(F)F)[C@@H]1C2CC(C2)N1S(=O)(=O)c1ccc(F)cc1 [(2S)-3-(4-fluorophenyl)sulfonyl-N-[[5-(trifluoromethoxy)-2-[2-(trifluoromethyl)pyrimidin-5-yl]-4-pyridyl]methyl]-3-azabicyclo[2.1.1]hexane-2-carboxamide] | 2.77 nM |
| O=C(NCc1cc(-c2cnc(C(F)(F)F)nc2)ncc1C(F)(F)F)[C@@H]1C2CC(C2)N1S(=O)(=O)c1ccc(F)cc1 [(2S)-3-(4-fluorophenyl)sulfonyl-N-[[5-(trifluoromethyl)-2-[2-(trifluoromethyl)pyrimidin-5-yl]-4-pyridyl]methyl]-3-azabicyclo[2.1.1]hexane-2-carboxamide] | 2.61 nM |
| O=C(NCc1cc(-c2cnc(C(F)(F)F)nc2)ncc1C(F)(F)F)[C@@H]1C2CC(C2)N1S(=O)(=O)c1cc2cc(F)ccc2o1 [(2S)-3-(5-fluorobenzofuran-2-yl)sulfonyl-N-[[5-(trifluoromethyl)-2-[2-(trifluoromethyl)pyrimidin-5-yl]-4-pyridyl]methyl]-3-azabicyclo[2.1.1]hexane-2-carboxamide] | 1.85 nM |
| O=C(NCc1cc(Cl)nc(-c2cnc(C(F)(F)F)nc2)c1)[C@@H]1C2CC(C2)N1S(=O)(=O)c1ccc(F)cc1 [(2S)-N-[[2-chloro-6-[2-(trifluoromethyl)pyrimidin-5-yl]-4-pyridyl]methyl]-3-(4-fluorophenyl)sulfonyl-3-azabicyclo[2.1.1]hexane-2-carboxamide] | 4.64 nM |
| O=C(NCc1cc(-c2cnc(C(F)(F)F)nc2)nc(C2CC2)n1)[C@@H]1C2CC(C2)N1S(=O)(=O)c1ccc(F)cc1 [(2S)-N-[[2-cyclopropyl-6-[2-(trifluoromethyl)pyrimidin-5-yl]pyrimidin-4-yl]methyl]-3-(4-fluorophenyl)sulfonyl-3-azabicyclo[2.1.1]hexane-2-carboxamide] | 2.15 nM |
| O=C(NCc1cc(-c2cnc(C(F)(F)F)nc2)ncc1C(F)F)[C@@H]1C2CC(C2)N1S(=O)(=O)c1ccc(F)c(F)c1 [(2S)-N-[[5-(difluoromethyl)-2-[2-(trifluoromethyl)pyrimidin-5-yl]-4-pyridyl]methyl]-3-(3,4-difluorophenyl)sulfonyl-3-azabicyclo[2.1.1]hexane-2-carboxamide] | 9.01 nM |
| O=C(NCc1cc(-c2cnc(C(F)(F)F)nc2)ncc1C(F)F)[C@@H]1C2CC(C2)N1S(=O)(=O)c1ccc(F)cc1 [(2S)-N-[[5-(difluoromethyl)-2-[2-(trifluoromethyl)pyrimidin-5-yl]-4-pyridyl]methyl]-3-(4-fluorophenyl)sulfonyl-3-azabicyclo[2.1.1]hexane-2-carboxamide] | 9.92 nM |
| O=C(NCc1cc(-c2cnc(C(F)(F)F)nc2)ncc1Br)[C@@H]1C2CC(C2)N1S(=O)(=O)c1ccc(F)cc1 [(2S)-N-[[5-bromo-2-[2-(trifluoromethyl)pyrimidin-5-yl]-4-pyridyl]methyl]-3-(4-fluorophenyl)sulfonyl-3-azabicyclo[2.1.1]hexane-2-carboxamide] | 3.82 nM |

More lines, now with the values ahead:

| IC50 | Compound |
| --- | --- |
| 1.55 nM | O=C(NCc1cc(-c2cnc(C(F)(F)F)nc2)ncc1Cl)[C@@H]1C2CC(C2)N1S(=O)(=O)c1ccc(F)c(F)c1 [(2S)-N-[[5-chloro-2-[2-(trifluoromethyl)pyrimidin-5-yl]-4-pyridyl]methyl]-3-(3,4-difluorophenyl)sulfonyl-3-azabicyclo[2.1.1]hexane-2-carboxamide] |
| 7.24 nM | O=C(NCc1cc(-c2cnc(C(F)(F)F)nc2)cc(C2CC2)n1)[C@@H]1C2CC(C2)N1S(=O)(=O)c1ccc(F)cc1 [(2S)-N-[[6-cyclopropyl-4-[2-(trifluoromethyl)pyrimidin-5-yl]-2-pyridyl]methyl]-3-(4-fluorophenyl)sulfonyl-3-azabicyclo[2.1.1]hexane-2-carboxamide] |

Same assay, conditions: Table 3; CHO cells expressing TRPA1; 75 uM cinnamaldehyde (~EC80) as agonist

| IC50 | Compound |
| --- | --- |
| 42.9 nM | O=C(NCc1cc(-c2cnc(C(F)(F)F)nc2)ncn1)[C@@H]1C2CC(C2)N1S(=O)(=O)c1ccc(F)cc1 [compound 1, (2S)-3-(4-fluorophenyl)sulfonyl-N-[[6-[2-(trifluoromethyl)pyrimidin-5-yl]pyrimidin-4-yl]methyl]-3-azabicyclo[2.1.1]hexane-2-carboxamide] |
| 11.3 nM | O=C(NCc1cc(-c2cnc(C(F)(F)F)nc2)ncc1F)[C@@H]1C2CC(C2)N1S(=O)(=O)c1ccc(F)cc1 [compound 2, (2S)-3-(4-fluorophenyl)sulfonyl-N-[[5-fluoro-2-[2-(trifluoromethyl)pyrimidin-5-yl]-4-pyridyl]methyl]-3-azabicyclo[2.1.1]hexane-2-carboxamide] |
| 24.8 nM | O=C(NCc1cc(-c2ccc(C(F)(F)F)nc2)ncn1)[C@@H]1C2CC(C2)N1S(=O)(=O)c1ccc(F)cc1 [compound 3, (2S)-3-(4-fluorophenyl)sulfonyl-N-[[6-[6-(trifluoromethyl)-3-pyridyl]pyrimidin-4-yl]methyl]-3-azabicyclo[2.1.1]hexane-2-carboxamide] |
| 36.4 nM | O=C(NCc1ccnc(-c2cnc(C(F)(F)F)nc2)c1)[C@@H]1C2CC(C2)N1S(=O)(=O)c1ccc(F)cc1 [compound 4, (2S)-3-(4-fluorophenyl)sulfonyl-N-[[2-[2-(trifluoromethyl)pyrimidin-5-yl]-4-pyridyl]methyl]-3-azabicyclo[2.1.1]hexane-2-carboxamide] |
| 4.64 nM | O=C(NCc1cc(Cl)nc(-c2cnc(C(F)(F)F)nc2)c1)[C@@H]1C2CC(C2)N1S(=O)(=O)c1ccc(F)cc1 [compound 5, (2S)-N-[[2-chloro-6-[2-(trifluoromethyl)pyrimidin-5-yl]-4-pyridyl]methyl]-3-(4-fluorophenyl)sulfonyl-3-azabicyclo[2.1.1]hexane-2-carboxamide] |
| 16.8 nM | O=C(NCc1cc(-c2cnc(C(F)(F)F)nc2)c(F)cn1)[C@@H]1C2CC(C2)N1S(=O)(=O)c1ccc(F)cc1 [compound 6, (2S)-3-(4-fluorophenyl)sulfonyl-N-[[5-fluoro-4-[2-(trifluoromethyl)pyrimidin-5-yl]-2-pyridyl]methyl]-3-azabicyclo[2.1.1]hexane-2-carboxamide] |
| 20.8 nM | O=C(NCc1cc(-c2cnc(C(F)(F)F)nc2)c(Cl)cn1)[C@@H]1C2CC(C2)N1S(=O)(=O)c1ccc(F)cc1 [compound 7, (2S)-N-[[5-chloro-4-[2-(trifluoromethyl)pyrimidin-5-yl]-2-pyridyl]methyl]-3-(4-fluorophenyl)sulfonyl-3-azabicyclo[2.1.1]hexane-2-carboxamide] |
